Residue numbers refer to the chain shown, from its start. “Also recorded” adds a separate entry of the source. Where two headings read alike, the source gives them in different places.
Legend:
[1] = Challenge with monothiol reductant GSH, cell-free fluorogenic cargo release; type: physicochemical; settings: 10 μM probe; for sensitivity to GSH in GSH titration, signal F/F^TCEP: 3 h timepoint, GSH up to 10 mM; for cargo release when challenged with GSH / GSH system reductants: relevant cellular levels
Excerpt: (§1) This cell-free assay examined the stability of dichalcogenide-based reduction-triggered compounds of the invention when exposed to cellular monothiol reductant GSH, and its cellular partner reductants glutathione reductase (GR) and glutaredoxins (Grx1 and Grx2).
(§2) Assay Conditions: A black 96-well plate with black bottom was charged with solutions of fluorophore-releasing reduction-triggered probes that are compounds of the invention (P1, P2, P3, P6 and P7) or that are not compounds of the invention and reveal the performance of prior art systems (disulfide X26), reaching 100 μL final volume, 1% final DMSO, 10 μM probe, aq. TE buffer (pH 7.4), with the indicated concentrations of reductant (in FIG. 1a) or concentration ratios of reductant to probe (in FIG. 1b-d). TCEP (100 μM) was used as a quantitative reference reductant; and in the GR/GSH/Grx assays (FIG. 1c-d), GR was used at 20 nM, GSH at 100 μM, to maintain Grx in a reduced state suitable for challenging the probes without supplying a high concentration of either GSH or GR. Reaction mixtures were incubated at 37° C. for up to 6 h while measuring fluorescence intensity F over time, using a BMG Labtech FLUOstar Omega platereader (λexc=355 nm, λem=530 nm).
(§3) Data Representation: F^TCEP is the maximum possible fluorescence increase, corresponding to complete reduction-triggered cargo release by the TCEP incubation. F/F^TCEP thus gives the fluorescence intensity, as a fraction of the maximum possible fluorescence signal, at the indicated times.

[2] = system: HeLa cervical cancer cell line; assay: Cellular reduction assay in HeLa cells (fluorescence timecourse); type: cell-based, human; settings: time- and dose-dependence
Protocol: (§4) Assay Conditions: Cells were cultured under standard conditions (Gao, L. et al. Cell Chemical Biology 2021, 28, 1-14. https://doi.org/10.1016/j.chembiol.2020.11.007), left to adhere for 24 h, then compounds were added to 100 μM with 1% vol DMSO. Fluorescence timecourse measurements were acquired as in the chemoreductant assay, with all conditions in triplicates.
(§5) Data Representation: F.I.(t) is the fluorescence intensity signal increase as compared to time zero signal (fluorescence intensity immediately following compound addition, before probe activation could occur), in arbitrary units although with the same detection settings for all probes releasing the same cargo. This corresponds to reduction-triggered cargo release.

[3] = system: selenium-dependent reductases in cells; assay: Cellular reduction assay with selenium starvation or supplementation; type: cell-based
Protocol: as §4, §5

[4] = system: glutaredoxins (Grx1 and Grx2) with GR and GSH; assay: Challenge with GR/GSH/Grx system reductants, cell-free; type: biochemical; settings: 10 μM probe, GR 20 nM, GSH 100 μM, Grx1 or Grx2 up to physiological concentrations
Excerpt: as §1, §2, §3

[5] = target: T1, human recombinant thioredoxin reductase 1 (TrxR1) (Homo sapiens, UniProt Q16881); assay: Enzymatic activation assay with TrxR1, cell-free; type: biochemical; settings: 10 μM probe; for cargo release on exposure to TrxR1 (timecourse): 20 nM TrxR1, 100 μM NADPH, 37 °C; for response in TrxR titration: TrxR down to 5 nM
T1 sequence (Q16881 1-499 isoform Q16881-5): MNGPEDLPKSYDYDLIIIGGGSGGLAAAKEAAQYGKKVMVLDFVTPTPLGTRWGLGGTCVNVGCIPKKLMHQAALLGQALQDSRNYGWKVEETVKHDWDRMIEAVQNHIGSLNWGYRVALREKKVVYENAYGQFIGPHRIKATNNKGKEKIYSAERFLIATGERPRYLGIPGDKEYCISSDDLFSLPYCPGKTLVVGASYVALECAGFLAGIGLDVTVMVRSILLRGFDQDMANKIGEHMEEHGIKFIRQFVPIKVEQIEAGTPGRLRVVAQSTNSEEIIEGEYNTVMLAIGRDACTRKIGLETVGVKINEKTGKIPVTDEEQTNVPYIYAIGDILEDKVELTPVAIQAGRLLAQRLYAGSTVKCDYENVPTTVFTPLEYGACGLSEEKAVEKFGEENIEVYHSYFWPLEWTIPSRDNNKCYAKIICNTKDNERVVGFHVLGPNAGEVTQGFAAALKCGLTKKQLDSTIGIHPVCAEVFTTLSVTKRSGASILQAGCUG
Protocol: (§6) This cell-free assay (see FIG. 2) examined the processing of dichalcogenide-based fluorophore-releasing reduction-triggered probes that are compounds of the invention, by components of the cellular thioredoxin system.
(§7) Assay conditions and data representation: A black 96-well plate with black bottom was charged with solutions of probes (P1, P2, P3, P6, P7) to reach final reaction conditions: 100 μL of aq. TE buffer (pH 7.4), 10 μM probe concentration, 1 vol % DMSO, and 20 nM of human recombinant thioredoxin reductase 1 (TrxR1; in FIG. 1a), or 20 nM of either TrxR1 or thioredoxin reductase Sec498Cys mutant (TrxR1 U498C or “mut”; in FIG. 1b), or the indicated probe-to-reductant concentration ratios of TrxR1 (in FIG. 1c) or human recombinant thioredoxin 1 (Trx1; in FIG. 1d); with the final step being the addition of NADPH (100 μM final). The reaction mixtures were incubated at 37° C. for 3 to 6 h as shown with timecourse measurements of fluorescence as for FIG. 1. Data representation as for FIG. 1.

[6] = target: T2, thioredoxin reductase Sec498Cys mutant (TrxR1 U498C) (Homo sapiens, UniProt Q16881); assay: Enzymatic activation assay with TrxR1 Sec498Cys mutant, cell-free; type: biochemical; settings: 10 μM probe, 20 nM mutant, 100 μM NADPH
T2 sequence (Q16881 with tags, fused parts or gaps isoform Q16881-5): T1 sequence (Q16881 1-499 isoform Q16881-5) with U498C
Protocol: as §6, §7

[7] = target: T3, human recombinant thioredoxin 1 (Trx1) (Homo sapiens, UniProt P10599); assay: Trx1 titration in Trx1/TrxR1 system, cell-free; type: biochemical; settings: 10 μM probe
T3 sequence (P10599 2-105 limits assumed): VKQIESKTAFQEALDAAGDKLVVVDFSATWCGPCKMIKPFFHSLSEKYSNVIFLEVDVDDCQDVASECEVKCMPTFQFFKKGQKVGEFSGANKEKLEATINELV
Protocol: as §6, §7

HeLa cells = assay: In vitro cell viability assay (resazurin); type: cell-based, human; settings: 48 h incubation, read-out: EC50 (antiproliferation / cell viability)
Protocol: Assay Conditions: HeLa cells were cultured under standard conditions (Gao, L. et al. Cell Chemical Biology 2021, 28, 1-14. https://doi.org/10.1016/j.chembiol.2020.11.007), left to adhere for 24 h, then compounds were added from DMSO stock solution and adjusted to 1% vol DMSO. Cells were further incubated for 48 h, then 0.20 volume equivalents of a solution of resazurin in PBS (0.15 mg/mL) were added and incubated for 3 hours, then fluorescence (ex 544 nm, em 590 nm) was detected on a fluorescence platereader. Cell viability (%) is calculated from the fluorescence values, relative to a control experiment with no compound added.

[8] = low concentration of GSH, within 20 minutes; cited from earlier work
[9] = system: A549 lung cancer cell line; assay: Cellular reduction assay in A549 cells; type: cell-based, human; settings: time- and dose-dependence
Protocol: as §4, §5

TrxR1 = target: T4, TrxR1 (Mus musculus, UniProt Q9JMH6); assay: Cellular reduction assay in MEF cells with TrxR1 knockout; type: cell-based; settings: MEF wildtype vs TrxR1 knockout
T4 construct: P6 is processed by native (selenium-incorporating) TrxR1 in cells; endogenous in cells; host or cells: MEF wildtype and MEF with TrxR1 knockout
T4 sequence (Q9JMH6 1-499 isoform Q9JMH6-2): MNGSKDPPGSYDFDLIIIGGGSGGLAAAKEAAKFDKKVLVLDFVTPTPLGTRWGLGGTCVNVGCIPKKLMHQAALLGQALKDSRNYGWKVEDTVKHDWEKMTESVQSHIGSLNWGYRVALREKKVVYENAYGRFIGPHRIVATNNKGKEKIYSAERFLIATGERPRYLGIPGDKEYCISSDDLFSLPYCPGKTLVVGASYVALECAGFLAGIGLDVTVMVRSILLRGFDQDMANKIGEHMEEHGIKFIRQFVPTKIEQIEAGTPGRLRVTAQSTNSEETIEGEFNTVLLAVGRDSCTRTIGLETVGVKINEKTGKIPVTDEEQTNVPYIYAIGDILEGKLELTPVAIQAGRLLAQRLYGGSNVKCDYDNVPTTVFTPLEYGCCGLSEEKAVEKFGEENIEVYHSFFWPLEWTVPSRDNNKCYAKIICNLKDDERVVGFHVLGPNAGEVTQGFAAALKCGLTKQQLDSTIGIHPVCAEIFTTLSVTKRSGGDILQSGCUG
Protocol: as §4, §5

TrxR = target: T5, TrxR (Homo sapiens, UniProt Q16881); assay: Cellular reduction assay in HeLa cells with chemical TrxR inhibition (TRi compounds); type: cell-based
T5 construct: P6 is processed by native (selenium-incorporating) TrxR1 in cells; endogenous in cells; host or cells: HeLa
T5 sequence (Q16881 1-499 isoform Q16881-5): T1 sequence (Q16881 1-499 isoform Q16881-5)
Protocol: as §4, §5

Compound | fluorescence signal generation F.I.(t) in HeLa cells [2] | effect of selenium starvation/supplementation on cellular signal generation [3] | sensitivity to GSH in GSH titration, signal F/F^TCEP [1] | cargo release when challenged with GSH / GSH system reductants [1] | triggering by GR/GSH/Grx systems [4] | cargo release on exposure to TrxR1 (timecourse) [5] | response in TrxR titration [5] | cargo release by TrxR1 U498C mutant [6] | cargo release with increasing Trx1 at fixed TrxR1 [7] | further results
CNCCSSCCN(C)C(=O)Oc1ccc(Cl)cc1-c1nc2ccc(Cl)cc2c(=O)[nH]1 [X26, 4-chloro-2-(6-chloro-4-oxo-3,4-dihydroquinazolin-2-yl)phenyl methyl(2-((2-(methylamino)ethyl)disulfaneyl)ethyl)carbamate, reference compound] | also generated signal | not sensitive to selenium supplementation |  |  |  |  |  |  |  | response to GSH-triggered release of fluorescent cargo PQ-OH (timecourse) ([1]; subphysiological GSH 1 mM, TE buffer pH 7.4, 37 °C): rapidly and strongly affected; also recorded: rapid response
CN1CCN(C(=O)CCN(C(=O)Oc2ccc(Cl)cc2-c2nc3ccc(Cl)cc3c(=O)[nH]2)[C@H]2CC[Se]SC2)CC1 [P7] | strong time- and dose-dependent fluorescent signal increase; also recorded: generated strong fluorescent signal |  | very low sensitivity | high resistance to GSH challenge | resist triggering; also recorded: total resistance to Grx challenge | release their cargo rapidly; also recorded: release cargo very rapidly | excellently responsive; also recorded: sensitively | do not respond to the mutant; also recorded: did not cause cargo release | identical release of cargo; also recorded: did not affect the outcomes | 
CN(C(=O)Oc1cc2c(c3ccccc13)[C@H](CCl)CN2C(=O)c1cc2cc(OCCCN3CCC3)ccc2[nH]1)[C@H]1CCS[Se]C1 [P8] |  |  |  |  |  |  |  |  |  | EC50 (HeLa cells): < 100 nM; EC50 (HeLa cells; Homo sapiens, 48 h): ~60 nM
COc1cccc2ccc3c(c12)Oc1cc(NC(=O)OCC[Se][Se]CCO)ccc1C31OC(=O)c2ccccc21 (centres unmarked) [E2] |  |  |  |  |  |  |  |  |  | fluorescence signal with GSH [8]: strong signal turn-on
CN1CCN(C(=O)CCN(C(=O)Oc2ccc(Cl)cc2-c2nc3ccc(Cl)cc3c(=O)[nH]2)[C@H]2CCS[Se]C2)CC1 [P6] | strong time- and dose-dependent fluorescent signal increase; also recorded: generated strong fluorescent signal | strongly suppressed by selenium starvation | completely insensitive | totally resisted releasing cargo | resist triggering | release their cargo rapidly; also recorded: release cargo very rapidly | excellently responsive; also recorded: sensitively | do not respond to the mutant; also recorded: did not cause cargo release | identical release of cargo; also recorded: did not affect the outcomes | fluorescence signal generation in A549 cells [9]: time- and dose-dependent fluorescence increase; also recorded: dose- and time-dependently generated signal; effect of TrxR1 knockout on cellular signal (TrxR1): almost entirely suppressed by knockout; effect of chemical TrxR inhibition on cellular signal (TrxR): suppresses P6 signal generation; also recorded: almost entirely suppressed

From patent publication US20240156965A1, “DICHALCOGENIDE PRODRUGS” (Ludwig-Maximilians-Universitat Munchen, priority 2021, published 2024)
